Assay results taken from patent publication US20110294728A1, “Antiviral Polypeptides” (priority 2008, published 2011).
Read-outs that look alike come from different tables or passages of the source. Where a SMILES comes first, the peptide text is derived from it. Bridges are numbered along the chain shown (N, C = ends). Where no end group is shown, it is not given here.

Key:
[1] = system: efavirenz-resistance HIV strain harbouring K103N and N341V mutations on reverse transcriptase; type: in vivo, Hu-PBL-SCID transgenic mice; conditions: EFZ resistance strain; 20 mg/kg/day; peptides formulated with CADY-2c/CADY-1S1
Description: (§1) The potency of the peptides p27 (SEQ ID NO: 25) and p16 (SEQ ID NO: 19) was assessed in vivo following intravenous challenge of Hu-PBL-SCID transgenic mice (in which human (hu) peripheral blood leukocytes (PBLs) from healthy Epstein-Barr virus (EBV)-seropositive donors are injected into severe combined immunodeficiency (SCID) mice; Mosier et al., 1988). The mice (6 to 8 week-old male mice, 5 animals per group) were infected with wild type HIV 1 virus or efavirenz-resistance HIV strain harbouring K103N and N341V mutations on reverse transcriptase. Infected mice were treated with peptides formulated with the peptide vector CADY-2c (see above) in water at a ratio 1/20, and then particles were coated with 3% of CADY-1S1 (see above), as described in International Application WO 2007/069090. Particles were injected intravenously (100 μl) every 2 days for 1 week, then HIV-1 copy were quantified by quantitative PCR. Efavirenz (a non-nucleoside reverse transcriptase inhibitor; EFZ) was used a positive drug control.

wild type HIV 1 virus = test: HIV propagation in Hu-PBL-SCID mice, wild type virus; type: in vivo, Hu-PBL-SCID transgenic mice; conditions: 20 mg/kg; peptides formulated with CADY-2c/CADY-1S1; HIV-1 DNA copies in splenocyte extracts
Description: as §1

IN/DNA complexes [2] = molecular target: T1, IN/DNA complexes (Human immunodeficiency virus type 1 group M subtype B, UniProt P04585); test: DNA-binding of integrase, fluorescence anisotropy; type: biochemical, HIV-1
Description: (§2) The simultaneous measurement of integrase-DNA interaction and subsequent 3′-processing activity by steady-state fluorescence anisotropy was performed as described in Guiot et al. (2006). […] After the initial DNA-binding step (performed at 25° C.), the 3′-processing activity was measured at 37° C. by fixed-time experiments: The reaction was stopped at varying times by adding SDS (0.25% final) which disrupts all IN-DNA complexes in the sample. The IN-mediated cleavage of the terminal GT dinucleotide (labeled by fluorescein on the 3′-end) leads to a significant decrease of r as compared to the r value corresponding to the fluorescein-labeled unprocessed DNA substrate. The fraction of released dinucleotide is calculated by using Eq. (1): […]

IN/LEDGF complex = IN/LEDGF complex (Human immunodeficiency virus type 1 group M subtype B, UniProt P04585); test: Dissociation of IN/LEDGF complex (AlphaScreen, immunoprecipitation); type: biochemical
Description: Dissociation of IN/LEDGF complex was measured by fluorescence resonance energy transfer (AlphaScreen® technology) and immunoprecipitation experiments: • Amplified Luminescent Proximity Homogeneous Assay (ALPHA): when the proteins (IN and LEDGF), linked to acceptor and donor beads, interact together (i.e., are into close proximity), a photosignal (a high amplified signal with output in the 520-560 nm range) is detected; when the proteins are not in close proximity, the reactive oxygen decays and there is no detectable signal generated; • immunoprecipitation (IP) was performed using polyclonal anti LEDGF antibodies (purchased from Santa Cruz Biotechnology, USA) and polyclonal HA antibodies (purchased from Eurogentec, Belgium). Cell line expression HA-tagged integrase was using for the experiment in the presence of increasing concentrations of peptide inhibitors.

HIV-1-LAI strain = system: HIV-1-LAI strain
Description: The anti-HIV activities of the peptides were assayed according to the methods described in Roisin et al. (2004). Phytohemagglutinin-P(PHA-P)-activated peripheral blood mononuclear cells (PBMC) treated by increasing concentrations of peptide (from 100 to 0.1 nM), one hour later, were infected with hundred 50% tissue culture infectious doses (TCID50) per 100,000 cells of the HIV-1-LAI strain (Barre-Sinoussi et al., 1983). This virus was amplified in vitro on PHA-P-activated PBMC. Viral stock was titrated using PHA-P-activated PBMC, and 50% TCID50 were calculated using Kärber's formula (Kärber, 1931). Samples were maintained throughout the culture, and cell supernatants were collected at day 7 post-infection and stored at −20° C. Viral replication was measured by quantifying reverse transcriptase (RT) activity in cell culture supernatants. In parallel, cytotoxicity of the compounds was evaluated in uninfected PHA-P-activated PBMC by colorimetric 3-(4-5 dimethylthiazol-2-yl)2,5diphenyl tetrazolium bromite (MTT) assay on day 7 (as described in Mossmann, 1983). Experiments were performed in triplicate and repeated with another blood donor. Data analyses were performed using SofiMax® Pro 4.6 microcomputer software: percent of inhibition of RT activity or of cell viability were plotted vs concentration and fitted with quadratic curves; 50% effective doses (ED50) and cytotoxic doses (CD50) were calculated.
In order to avoid any limitation due to the poor ability of peptides to cross cellular membranes, they were associated to the peptide-based nanoparticle delivery system Pep-1 (SEQ ID NO: 29), at a 1/10 molar ratio.

HIV-1 integrase [3] = molecular target: T2, HIV-1 integrase (Human immunodeficiency virus type 1 group M subtype B, UniProt P04585); test: biochemical
T2 construct: Integrase is a 32 kDA viral protein that is biologically active under a multimeric form
Description: as §2

IN/DNA complexes [4] = molecular target: T1, IN/DNA complexes; test: Dissociation of pre-formed IN-DNA substrate complexes; type: biochemical, HIV-1
Description: For dissociation experiments, IN-DNA substrate complexes were pre-formed at 25° C. before addition of peptides. The peptide-mediated dissociation of complexes was then studied at the same temperature by measuring the decrease in the r value as a function of time.

HIV-1 RT = molecular target: T3, HIV-1 RT (Human immunodeficiency virus type 1 group M subtype B, UniProt P03366); test: biochemical
T3 construct: The heterodimeric p66/p51 RT was eluted with an imidazole gradient; p66 and p51 derived from p66 by proteolytic cleavage of the C-terminal RNAse H domain; made in house; host or cells: E. coli (M15 for the His-tagged subunits)
Description: RNA-dependent-DNA RT-polymerase activity was measured in a standard reaction assay using poly(rA)-(dT)15 as template/primer as described in Restle et al. (1990). Ten microliters of reverse transcriptase (RT) at 20 nM was incubated at 37° C. for 30 min with 20 μL of reaction buffer (50 mM Tris, pH 8.0, 80 mM KCl, 6 mM MgCl2, 5 mM DTT, 0.15 μM poly(rA-dT), 15 μM dTTP, 0.3 μCi 3H-dTTP). For peptide evaluation, HIV-1 RT was incubated with increasing concentrations of peptide inhibitors for […], and polymerase reaction was initiated by adding reaction buffer. Reactions were stopped by precipitation of nucleic acids with 5 ml of 20% trichloroacetic acid (TCA) solution for 2 h on ice, then filtered using a multiwell-sample collector (Millipore), and washed with 5% TCA solution. Filters were dried at 55° C. for 30 min and radionucleotide incorporation was determined by liquid scintillation spectrometry.
A series of peptides have been derived from Pep-A sequence (SEQ ID NO: 28), which is derived from HIV-1 reverse transcriptase. First, P1 peptide (SEQ ID NO: 1) was obtained by removing the N-terminal arginine of Pep-A. Then, additional peptides were generated by performing an alanine scan on P1. P1-derived peptides were evaluated using a standard polymerase RT assay. Reported data correspond to the mean of three separate experiments.

HIV-1 integrase [5] = molecular target: T2, HIV-1 integrase; test: biochemical; type: binding
Description: Fluorescein-labeled peptides (40 nM) were mixed with varying concentrations of integrase in 20 mM Tris pH 7.2, 50 mM NaCl, 10 mM MgCl2, and the r values were recorded.
Effect of the different peptides on the integrase (IN) activity, DNA binding and IN/DNA dissociation were evaluated as described in Example III.1 above, using fluorescence polarization and anisotropy measurements. Binding constant of the peptide for IN was determined by steady state fluorescence and anisotropy.

[6] = read-out: EC50 HIV-1 lai, Table 10

Compound	reduction of viral propagation [1]	HIV propagation in vivo (in words) (wild type HIV 1 virus)	EC50 (IN/DNA complexes [2])	EC50 (IN/LEDGF complex)	EC50 (HIV-1-LAI strain; read-out: EC50, antiviral activity, peptide complexed with Pep-1)	EC50 (HIV-1 integrase [3])	EC50 (IN/DNA complexes [4])	Ki (HIV-1 RT)	Kd (HIV-1 integrase [5])	EC50 (HIV-1-LAI strain; [6])	Ki (HIV-1 integrase [3])	reduction of efficiency (higher Ki) relative to PAW (HIV-1 RT; relative to PAW)
O=C1Nc2ccc(Cl)cc2[C@@](C#CC2CC2)(C(F)(F)F)O1 [Efavirenz, reference compound]	no effect	block HIV propagation in vivo	–	–	–	–	–	–	–	–	–	–
GTKWLTEWIPL [Peptide P24]	–	–	35000 nM	13000 nM	2.3 nM	33000 nM	21000 nM	700 ± 50 nM	350 nM	–	–	–
CC[C@H](C)[C@@H]1NC(=O)[C@H](Cc2c[nH]c3ccccc23)NC(=O)[C@H](CCC(=O)O)NC(=O)[C@H]([C@@H](C)O)NC(=O)[C@H](CC(C)C)NC(=O)[C@H](Cc2c[nH]c3ccccc23)NC(=O)[C@H](CCCCN)NC(=O)[C@H]([C@@H](C)O)NC(=O)CNC(=O)[C@@H](N)CSSC[C@@H](C(=O)O)NC(=O)[C@H](CCC(=O)O)NC(=O)[C@H](C)NC(=O)[C@H]([C@@H](C)O)NC(=O)[C@H](CC(C)C)NC(=O)[C@@H]2CCCN2C1=O [Peptide P27C1] (H-CGTKWLTEWIPLTAEC-OH; disulfide 1-16)	–	–	–	–	–	–	–	42 nM	> 100000 nM	0.17 nM	> 100000 nM	–
KWLTEWIPLTAEAE [Peptide P26]	–	–	54000 nM	> 50000 nM	–	28000 nM	67000 nM	1800 ± 700 nM	320 nM	–	–	2.5 fold
CC[C@H](C)[C@@H]1NC(=O)[C@H](Cc2c[nH]c3ccccc23)NC(=O)[C@H](CCC(=O)O)NC(=O)[C@H]([C@@H](C)O)NC(=O)[C@H](CC(C)C)NC(=O)[C@H](Cc2c[nH]c3ccccc23)NC(=O)[C@H](CCCCN)NC(=O)[C@H]([C@@H](C)O)NC(=O)CNC(=O)[C@@H](N)CSSC[C@@H](C(=O)O)NC(=O)[C@H](CCC(=O)O)NC(=O)[C@H](C)NC(=O)[C@H](CCC(=O)O)NC(=O)[C@H](C)NC(=O)[C@H]([C@@H](C)O)NC(=O)[C@H](CC(C)C)NC(=O)[C@@H]2CCCN2C1=O [PAW-C1] (H-CGTKWLTEWIPLTAEAEC-OH; disulfide 1-18)	–	–	–	–	–	–	–	200 nM	290 nM	1.2 nM	21000 nM	–
